Measured values as given in the NIST ThermoML archive (doi:10.1021/je050402s).

Assay: xn = mol fraction of the nth substance listed
Details: 100.5 kPa, Liquid; for viscosity: Capillary tube (Ostwald / Ubbelohde) method

CCOC(=O)CC(C)=O [ethyl 3-oxobutanoate] + CCO
Details | mass density, 288.15 K [kg/m3] | mass density, 298.15 K [kg/m3] | mass density, 308.15 K [kg/m3] | mass density, 318.15 K [kg/m3] | viscosity, 288.15 K [mPa·s] | viscosity, 298.15 K [mPa·s] | viscosity, 308.15 K [mPa·s] | viscosity, 318.15 K [mPa·s]
x1 = 0.05 | 818.78 | 809.91 | 800.94 | 791.8 | 1.266 | 1.042 | 0.869 | 0.731
x1 = 0.1 | 841 | 831.89 | 822.68 | 813.32 | 1.204 | 1.001 | 0.841 | 0.713
x1 = 0.15 | 860.94 | 851.63 | 842.22 | 832.67 | 1.19 | 0.99 | 0.832 | 0.709
x1 = 0.2 | 878.93 | 869.45 | 859.89 | 850.17 | 1.194 | 0.994 | 0.837 | 0.712
x1 = 0.25 | 895.25 | 885.63 | 875.91 | 866.05 | 1.206 | 1.003 | 0.846 | 0.721
x1 = 0.3 | 910.15 | 900.41 | 890.57 | 880.6 | 1.226 | 1.019 | 0.86 | 0.735
x1 = 0.35 | 923.79 | 913.94 | 903.99 | 893.92 | 1.25 | 1.038 | 0.878 | 0.751
x1 = 0.4 | 936.31 | 926.37 | 916.34 | 906.18 | 1.28 | 1.061 | 0.898 | 0.768
x1 = 0.45 | 947.86 | 937.83 | 927.73 | 917.49 | 1.312 | 1.087 | 0.921 | 0.789
x1 = 0.5 | 958.56 | 948.47 | 938.29 | 927.99 | 1.349 | 1.117 | 0.947 | 0.812
x1 = 0.55 | 968.53 | 958.37 | 948.11 | 937.75 | 1.39 | 1.151 | 0.974 | 0.836
x1 = 0.6 | 977.79 | 967.55 | 957.24 | 946.84 | 1.435 | 1.189 | 1.004 | 0.861
x1 = 0.65 | 986.4 | 976.13 | 965.77 | 955.36 | 1.484 | 1.227 | 1.036 | 0.888
x1 = 0.7 | 994.51 | 984.17 | 973.79 | 963.33 | 1.536 | 1.27 | 1.073 | 0.917
x1 = 0.75 | 1002.07 | 991.71 | 981.29 | 970.82 | 1.591 | 1.316 | 1.112 | 0.948
x1 = 0.8 | 1009.18 | 998.79 | 988.36 | 977.88 | 1.65 | 1.366 | 1.154 | 0.983
x1 = 0.85 | 1015.85 | 1005.46 | 995.02 | 984.54 | 1.709 | 1.415 | 1.199 | 1.018
x1 = 0.9 | 1022.16 | 1011.74 | 1001.3 | 990.84 | 1.773 | 1.471 | 1.247 | 1.059
x1 = 0.95 | 1028.15 | 1017.72 | 1007.29 | 996.82 | 1.834 | 1.524 | 1.295 | 1.103
x1 = 1 | 1033.92 | 1023.45 | 1013 | 1002.54 | 1.902 | 1.581 | 1.344 | 1.144

COC(=O)c1ccccc1 [methyl benzoate] + CCO
Details | mass density, 288.15 K [kg/m3] | mass density, 298.15 K [kg/m3] | mass density, 308.15 K [kg/m3] | mass density, 318.15 K [kg/m3] | viscosity, 288.15 K [mPa·s] | viscosity, 298.15 K [mPa·s] | viscosity, 308.15 K [mPa·s] | viscosity, 318.15 K [mPa·s]
x1 = 0.05 | 825.66 | 816.86 | 807.97 | 798.9 | 1.324 | 1.092 | 0.911 | 0.766
x1 = 0.1 | 853.88 | 844.92 | 835.86 | 826.58 | 1.323 | 1.094 | 0.915 | 0.77
x1 = 0.15 | 879.1 | 869.96 | 860.69 | 851.28 | 1.338 | 1.107 | 0.924 | 0.782
x1 = 0.2 | 901.63 | 892.4 | 883.02 | 873.48 | 1.359 | 1.122 | 0.94 | 0.797
x1 = 0.25 | 922.04 | 912.73 | 903.27 | 893.66 | 1.383 | 1.144 | 0.958 | 0.814
x1 = 0.3 | 940.62 | 931.27 | 921.76 | 912.06 | 1.417 | 1.171 | 0.981 | 0.834
x1 = 0.35 | 957.58 | 948.19 | 938.63 | 928.88 | 1.455 | 1.199 | 1.006 | 0.855
x1 = 0.4 | 973.15 | 963.7 | 954.11 | 944.3 | 1.496 | 1.232 | 1.031 | 0.877
x1 = 0.45 | 987.48 | 978.01 | 968.36 | 958.52 | 1.541 | 1.266 | 1.061 | 0.902
x1 = 0.5 | 1000.69 | 991.23 | 981.53 | 971.68 | 1.589 | 1.303 | 1.091 | 0.928
x1 = 0.55 | 1012.94 | 1003.42 | 993.75 | 983.88 | 1.64 | 1.341 | 1.123 | 0.954
x1 = 0.6 | 1024.33 | 1014.81 | 1005.11 | 995.26 | 1.692 | 1.384 | 1.158 | 0.982
x1 = 0.65 | 1034.94 | 1025.44 | 1015.73 | 1005.87 | 1.746 | 1.429 | 1.193 | 1.014
x1 = 0.7 | 1044.83 | 1035.36 | 1025.64 | 1015.8 | 1.807 | 1.475 | 1.231 | 1.047
x1 = 0.75 | 1054.13 | 1044.67 | 1034.95 | 1025.13 | 1.87 | 1.526 | 1.275 | 1.083
x1 = 0.8 | 1062.88 | 1053.41 | 1043.73 | 1033.93 | 1.942 | 1.581 | 1.318 | 1.122
x1 = 0.85 | 1071.11 | 1061.7 | 1052.04 | 1042.24 | 2.03 | 1.645 | 1.369 | 1.166
x1 = 0.9 | 1078.93 | 1069.53 | 1059.87 | 1050.1 | 2.118 | 1.712 | 1.421 | 1.208
x1 = 0.95 | 1086.31 | 1076.94 | 1067.3 | 1057.55 | 2.207 | 1.784 | 1.48 | 1.255
x1 = 1 | 1093.23 | 1083.92 | 1074.34 | 1064.62 | 2.297 | 1.851 | 1.531 | 1.297
